According to patent US11278549B2, “Method of treating obesity” (McMaster University, priority 2013, dated 2022):
Counter-ions that a name gives are not always drawn.

Tests used:
[1] = target: T1, 5-HT2A (Mus musculus, UniProt P35363); experiment: Fluo-4 Ca2+ signals in brown adipocytes; type: cell-based; details: for Ca2+ levels: brown adipocytes stained with Fluo-4, agonist treatment; for 5-HT induced Ca2+ transients: pre-treatment with antagonist
T1 construct: endogenous in cells; host or cells: immortalized murine brown adipocytes (differentiated)
T1 sequence (P35363 whole entry): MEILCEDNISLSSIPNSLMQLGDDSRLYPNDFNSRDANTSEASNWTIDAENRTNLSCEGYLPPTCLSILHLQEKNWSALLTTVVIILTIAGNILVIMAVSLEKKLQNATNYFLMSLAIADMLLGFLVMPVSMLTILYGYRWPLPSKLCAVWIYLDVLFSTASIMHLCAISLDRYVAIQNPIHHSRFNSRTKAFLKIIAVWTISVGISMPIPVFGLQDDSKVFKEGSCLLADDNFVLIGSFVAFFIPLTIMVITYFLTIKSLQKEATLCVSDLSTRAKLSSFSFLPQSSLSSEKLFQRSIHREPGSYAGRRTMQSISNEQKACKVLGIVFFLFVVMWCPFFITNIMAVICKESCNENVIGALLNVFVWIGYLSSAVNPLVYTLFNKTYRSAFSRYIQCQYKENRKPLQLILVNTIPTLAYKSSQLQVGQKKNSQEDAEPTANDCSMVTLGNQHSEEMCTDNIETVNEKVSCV
Excerpt: Immortalized BA progenitor cells obtained from 5-HT2A KO (B6; 129-5-HT2Atm1a/Nju from Nanjing Biomedical Research Institute of Nanjing University) mice were differentiated for 9 days to produce mature BAs. Cells were then stained with fluo-4 and treated with different concentrations of 5-HT to obtain a dose response curve. Values from BAs expressing 5-HT2A used for other experiments were plotted as a WT comparison.

[2] = tested on: HFD-fed Ucp1+/+ and Ucp1-/- mice; experiment: LP533401 in HFD-fed Ucp1+/+ and Ucp1-/- mice at thermoneutrality; type: in vivo
Procedure: Ucp1 heterozygous mice were acquired from Jackson Laboratories and bred to produce UCP1-null (Ucp1^−/−) and wild-type (Ucp1^+/+) littermates. In order to prevent thermal stress, mice in this colony were bred and housed in a room maintained at 30° C. All testing except for the CL-316,243 challenge occurred at this temperature.
(§1) Metabolic monitoring was performed in a Comprehensive Lab Animal Monitoring System (CLAMS, Columbus Instruments, OH, USA) as previously described (Sachithanandan, N., et al. Hepatology 52, 1632-1642 (2010); O'Neill, H. M., et al. Proc Natl Acad Sci 108, 16092-16097 (2011)). CL-316,243 challenge experiments were also performed using the CLAMS equipment, as described. All metabolic monitoring occurred in a room kept between 26 and 28° C. Insulin and glucose tolerance tests were performed after 16 weeks of the diet intervention in Tph1^−/− mice experiments, and after 6-10 weeks of HFD weeks in LP533401 injection experiments as previously described (Steinberg, G. R., et al. J Biol Chem 285, 37198-37209 (2010)). For serum insulin and cytokine measurements, fasting and fed blood samples were collected by retro-orbital bleed between weeks 16-18 using a non-heparinized capillary tube and insulin, adiponectin, leptin were measured as described (Watt, M. J., et al. Nature medicine 12, 541-548 (2006)). Serum cytokines (MCP-1, TNFα, and IL-6) were measured using a multiplexed bead-based immunoassay (BD Biosciences, San Jose, Calif., USA) following the manufacturer's instructions.
In order to establish whether the clinical benefits of Tph1 inhibition (weight loss and improvements in insulin sensitivity) are derived from increased thermogenesis mediated by UCP1, daily injections of LP533401 were performed using UCP1-null (Ucp1^−/−) and wild-type littermates (Ucp1^+/+) fed a HFD and housed under thermoneutral conditions (30° C.). […] Thus, the clinical benefits of Tph1 inhibition require UCP1 mediated thermogenesis.

[3] = tested on: HFD-fed C57Bl6 mice; experiment: Daily LP533401 treatment of HFD-fed C57Bl6 mice (prevention of obesity); type: in vivo
Excerpt: Animals. All experiments were approved by the McMaster University animal ethics committee and conducted under the Canadian guidelines for animal research. Tph1^−/− mice on C57BL/6 background were originally produced by gene mutation as described by Côté et al. (Proc Natl Acad Sci USA 100, 13525-13530 (2003)). Heterozygous (Tph1^+/−) mice were interbred to generate Tph1^−/− and Tph1^+/+ littermates. Starting at 8 weeks of age, male Tph1^−/− and Tph1^+/+ mice received either a chow (17% kcal fat; Diet 8640, Harlan Teklad, Madison, Wis.) or high-fat diet (HFD, 45% kcal fat, D12451, Research Diets; New Brunswick, N.J.) and water ad libitum for 12 weeks. For the initial chemical inhibitor studies, male C57BL/6 mice were purchased from Jackson's Laboratory at 6 weeks of age and immediately placed on the HFD described above. Starting at 8 weeks of age HFD-fed C57Bl6 mice received a daily intraperitoneal injection of the Tph1 inhibitor, LP533401 (25 mg/kg body weight, Dalton Pharma Services, Canada) dissolved in DMSO and diluted with water (5% DMSO final concentration) or equal volume of vehicle (5% DMSO in water). […] All mice were housed in SPF micro-isolator cages that were located in a room maintained at a constant temperature of 23° C. on a 12 h light/dark cycle with lights on at 0700.
as §1
In vivo glucose uptake and body composition: ^18F-Fluorodeoxyglucose (FDG) was synthesized at McMaster University by the nucleophilic substitution method using an FDG synthesizing instrument (GE Healthcare, Milwaukee, Wis., USA) and a cyclotron (Siemans 20-30 gb). After an 8 h fast, mice were injected with insulin (0.5 U/kg) diluted in 0.9% physiological saline and 5 minutes later received an intravenous administration of FDG (10.8±1.2 MBq/g). After injection, the mice were maintained under conscious conditions and warmed using a heating pad. At 28 minutes post saline or insulin injection mice were anaesthetized with isoflorane and at 30 minutes small-animal positron emission tomography (PET, Philip Mosaic, Andover, Mass.) and micro-computed tomography (CT) (Gamma Medica-Ideas Xspect System, NorthRidge, Calif.) imaging were performed using an acquisition time of 15 min for PET, followed by CT for 5 minutes. Images were reconstructed using 3D-RAMLA algorithm, with no attenuation correction and no correction for partial-volume effects of the tomograph as previously described^31. Quantification was performed by Region-of-interest (ROI) analysis using Amide Research Workplace software and FDG-tissue uptake calculated using the mean value of standard uptake values (SUV) as described (Palanivel R, Diabetologia. 55(11):3083-93 (2012)). […]

[4] = tested on: HFD-fed C57Bl6 mice; experiment: Metabolic cages and 18FDG-PET/CT of LP533401-treated HFD-fed mice; type: in vivo
Procedure: as §1
In vivo glucose uptake and body composition: ^18F-Fluorodeoxyglucose (FDG) was synthesized at McMaster University by the nucleophilic substitution method using an FDG synthesizing instrument (GE Healthcare, Milwaukee, Wis., USA) and a cyclotron (Siemans 20-30 gb). After an 8 h fast, mice were injected with insulin (0.5 U/kg) diluted in 0.9% physiological saline and 5 minutes later received an intravenous administration of FDG (10.8±1.2 MBq/g). After injection, the mice were maintained under conscious conditions and warmed using a heating pad. At 28 minutes post saline or insulin injection mice were anaesthetized with isoflorane and at 30 minutes small-animal positron emission tomography (PET, Philip Mosaic, Andover, Mass.) and micro-computed tomography (CT) (Gamma Medica-Ideas Xspect System, NorthRidge, Calif.) imaging were performed using an acquisition time of 15 min for PET, followed by CT for 5 minutes. Images were reconstructed using 3D-RAMLA algorithm, with no attenuation correction and no correction for partial-volume effects of the tomograph as previously described^31. Quantification was performed by Region-of-interest (ROI) analysis using Amide Research Workplace software and FDG-tissue uptake calculated using the mean value of standard uptake values (SUV) as described (Palanivel R, Diabetologia. 55(11):3083-93 (2012)). Analysis of total body fat composition were determined by using Amira software (Visage Imaging) and the mean value of voxels of segmented adipose were calculated and expressed relative to total body mass.
To examine the mechanisms contributing to weight loss in LP533401-treated mice, HFD-fed mice were placed in metabolic cages after 12 days of treatment before any change in body mass was evident in groups (Vehicle: 29.4±0.58 g vs. LP533401:28.9±0.63 g).

[5] = tested on: UCP1; experiment: Ucp1 promoter activity, Ucp1 mRNA and UCP1 protein in brown adipocytes; type: cell-based, mouse
Procedure: Using RNA-Seq, cultured human brown and beige adipocytes were interrogated for 5-HT receptor mRNA expression. Immortalized murine brown adipocytes (BAs) were treated with or without the selective 5-HT reuptake inhibitor (SSRI), paroxetine (250 nM). Subsequent studies were conducted with and without 5-HT2A agonists (1 pM-10 uM TCB-2, 1 pM-10 uM AL-34662, and 1 pM-10 uM NBOH-2C-CN) and 5-HT2A antagonists (100 fM-100 pM MDL-100907, 100 pM-10 uM xylamidine tosylate, 1 nM ketanserin, 10 nM altanserin, 100 fM-100 pM EMD-281,014, and 100 pM-10 uM sarpogrelate hydrochloride).
BA progenitors were isolated and immortalized from WT and serotonin transporter (SERT; Gene: Slc6a4) KO mice. These cells were then differentiated for 7 days to obtain mature BAs. BAs were then treated with different doses of 5-HT for 4 hours. RNA was isolated and quantified using RT-qPCR with probes specific for Slc6a4, Ucp1 and PPIA.
BA progenitors were isolated from mice expressing a transgene where the luciferase gene is driven by the Ucp1 promoter (i.e. Ucp1-Luc2 mice; a.k.a. ThermoMouse; Jackson Laboratories). Upon 9 days of differentiation, these BAs were treated for 4 hours with different doses of 5-HT. Because in vitro there is not a continuous supply of 5-HT as there is in vivo, cells were treated with paroxetine to inhibit the uptake and consequent degradation of 5-HT, and to observe 5-HT receptor specific effects. These cells were then lysed, incubated with a luciferin assay cocktail, and the light generated quantified on a microplate reader.

[6] = tested on: 5-HT receptor; experiment: Isoproterenol-induced lipolysis (FFA release) in immortalized BAT cells; type: cell-based, mouse; details: co-treatment with the antagonist (3 μM), n=2
Procedure: Briefly, confluent cells were placed in induction media (0.5 mM IBMX; 0.25 mM indomethacin; 2 μg/ml dexamethasone; 1 nM T3, 20 nM insulin) for two days and subsequently maintained on differentiation media (1 nM T3, 20 nM insulin). All experiments were performed on cultures 6-8 days post-induction. Unless otherwise indicated, cells were rinsed with PBS and media was changed to HEPES-buffered Krebs Ringer buffer (HKRB)+1% BSA. Where indicated, BAs were treated with serotonin for 30 min (100 μM; Sigma) followed by isoproterenol (1 nM, Sigma) for 4 h. The serotonin receptor antagonist, methysergide (3 μM) was used 45 min prior treatment with serotonin as above.

[7] = HFD-fed C57Bl6 mice, Tph1 inhibitor 25 mg/kg daily i.p., values ± SEM, n = 7-8

With C[C@H](N)Cn1ncc2ccc(O)cc21 [AL-34662] the “Ca2+ levels” value [1] was “increased”.

With N#Cc1c[nH]c2c(C(=O)N3CCN(CCc4ccc(F)cc4)CC3)cccc12 [EMD-281,014, pruvanserin] the “5-HT induced Ca2+ transients” value [1] was “attenuated”.

For Nc1nc(OC(c2ccc(-c3cccc(F)c3)cc2)C(F)(F)F)cc(-c2ccc(C[C@H](N)C(=O)O)cc2)n1 (stereo partly drawn) [LP533401, (2S)-2-amino-3-(4-(2-amino-6-(2,2,2-trifluoro-1-(3′-fluoro-[1,1′-biphenyl]-4-yl)ethoxy)pyrimidin-4-yl)phenyl)propanoic acid], the weight gain ([2]; Ucp1+/+ mice, HFD, 30° C.) was “attenuated weight gain”, the “improvements in glucose tolerance” value ([2]; Ucp1+/+ versus Ucp1-/- mice) was “entirely dependent on the expression of UCP1” and the “oxygen uptake and thermogenesis” value ([2]; challenged with CL-316,243, only Ucp1+/+ mice) was “increase”. For the same compound, the “accumulation of body fat” value ([3]; 25 mg/kg i.p., versus vehicle) was “lower accumulation”, the circulating serotonin levels ([3]; 25 mg/kg i.p., versus vehicle) was “reduced” and the glucose homeostasis ([3]; 25 mg/kg i.p., versus vehicle) was “improvements”. For the same compound, the insulin sensitivity ([3]; 25 mg/kg i.p., versus vehicle) was “increased”, the liver size ([3]; 25 mg/kg i.p., versus vehicle) was “reductions” and the weight gain ([3]; 25 mg/kg i.p., versus vehicle (1-2 grams per week)) was “suppressed”. The “Tissue weight, Brown Adipose Tissue” value [3, 7] was 153 ± 8.4 mg, the “Tissue weight, Epididymal Fat Pad” value [3, 7] was 1157 ± 121 mg and the “Tissue weight, Inguinal Fat Pad” value [3, 7] was 117 ± 16 mg. For the same compound, the “Tissue weight, Retroperitoneal Fat Pad” value [3, 7] was 265 ± 29.9 mg, the “FDG uptake in BAT” value ([4]; 18FDG-PET/CT) was “increased” and the “FDG uptake into eWAT” value ([4]; PET, HFD-fed C57Bl6 mice) was “increased”. The body mass ([4]; after 12 days of treatment, before any change in body mass) was 28.9 ± 0.63 g, the oxygen consumption ([4]; dark and light cycles, after 12 days of treatment) was “increased” and the “browning of eWAT” value ([4]; macroscopically evident, with marked UCP1 immunostaining) was “Increased”. The food intake ([4]; metabolic cages, P>0.05 vs vehicle, n=8) was 13.7 ± 0.45 g, the activity levels ([4]; metabolic cages, after 12 days of treatment) was “without altering” and the “expression of UCP1 in BAT” value ([4]; mouse, in vivo) was “enhanced”.

COc1cccc([C@H](O)C2CCN(CCc3ccc(F)cc3)CC2)c1OC [MDL-100907, volinanserin] was tested, and the “5-HT induced Ca2+ transients” value [1] was “attenuated” and the “5-HT induced decrease in UCP1 protein levels” value ([5]; antagonist plus 5-HT) was “dose-dependently attenuated”.

With COc1cc(CCNCc2ccccc2O)c(OC)cc1C#N [NBOH-2C-CN] the “Ca2+ levels” value [1] was “increased”, the “Ucp1 mRNA” value ([5]; brown adipocytes) was “inhibited” and the UCP1 protein levels ([5]; brown adipocytes, chronic treatment for NBOH-2C-CN) was “decreased”.

With COc1cccc(CCc2ccccc2OCC(CN(C)C)OC(=O)CCC(=O)O)c1 (centres unmarked) [Sarpogrelate hydrochloride] the “5-HT induced Ca2+ transients” value [1] was “attenuated”.

With COc1cc(Br)c(OC)c2c1[C@H](CN)C2 [TCB-2] the “Ca2+ levels” value [1] was “increased”.

CC[C@@H](CO)NC(=O)[C@@H]1C=C2c3cccc4c3c(cn4C)C[C@H]2N(C)C1 [methysergide] was tested, and the “effect of serotonin on isoproterenol-induced lipolysis” value [6] was “blocked”.

With Fc1ccc([C@@H]2CCNC[C@H]2COc2ccc3c(c2)OCO3)cc1 [paroxetine] the “sensitivity of brown adipocytes to inhibition by 5-HT” value ([5]; serotonin transporter inhibited with the SSRI) was “greater sensitivity”.
